Experimental data from patent US4620014A, “2-furylbutyrolactones and methods for using same” (priority 1983, dated 1986).

Legend:
[1] = tested on: L-1210 leukemia; test: Anti-cancer study, L-1210 leukemia in BDF1 mice; format: in vivo, mouse; settings: 20 mg/kg, seven days (Table 25)
Excerpt: Mice of the BDF1 strain are given an i.p. inoculation of 10^6 L-1210 leukemia cells on day 0. Twenty-four hours later, groups of 7 mice each are started on a […] treatment regimen of various doses of the compounds of this invention. The experiment is continued according to the guidelines provided under the National Cancer Institute protocol for screening new anti-cancer agents and T/C ratios (median or mean survival time of treated groups over median or mean survival time of controls) are calculated. A T/C value ≥1.25 (or 125%) is considered significant anticancer activity.
(§1) Mice of the BDF1 strain, inoculated with L-1210 leukemia cells, are treated for seven days with either 25, 50, 100, 200 or 400 mg/kg of Cpd. 1 or just buffer. The National Cancer Institute protocol for screening new anti-cancer agents is followed and T/C ratios are calculated.
as §1, with “either 100” for “either 25, 50, 100, 200 or 400”, “Cpd. 1, 20 mg/kg of 5-fluorouracil (5-FU), a known anti-cancer agent,” for “Cpd. 1”

[2] = tested on: spleen lymphocytes of C57BL/6 mice; test: In vivo treatment, lymphocyte stimulation assay, C57BL/6 mice; settings: 4 days
Method: (§2) The purpose of this assay is to challenge lymphocytes in microcultures with one or more polyclonal mitogens at concentrations that will induce mitogenesis within 72 hours of stimulation.
(§3) In the mouse model, spleens are removed from different strains of mice and the spleen cells are teased free and suspended in RPMI-1640 tissue culture medium at a concentration of usually 1×10^7 ml. These cells are dispensed at a concentration of 5.0×10^5 cells per microculture well in a 96 well flat bottom 96 well tissue culture plate. All testing of the compounds of this invention or mitogens are done in replicates of 10. The cells are then treated with PHA, Con-A, specific antigens, or buffer only. If in vitro testing is done, varying concentrations of the compounds of this invention or buffer only are added to the cells as well. After treatment with the mitogens and/or compounds of this invention, the cells are incubated for 72 hours. The response of these cells to mitogens and/or the compounds of this invention is assessed using ^14 C-thymidine labeling on the fourth day at a concentration of 0.01 μCi/well. The labeled cells are harvested using a lymphocyte harvestor and placed onto fibrous paper discs. A scintillation cocktail is added to vials contaning the discs and the results are obtained using a LKB-liquid scintillation counter (Model 1216/Rackbeta II). The data is expressed as a ratio of the cpm of the mitogen stimulated group to the control (non-mitogen) treated group=lymphocyte stimulation index (LSI).
(§4) The lymphocyte stimulation assay may be performed directly on spleen cells obtained from various strains of mice not treated with the compounds of this invention or on lymphocytes obtained from […]. […] Alternatively, the mice may be treated in vivo with the compounds of this invention by intraperitoneal multi-dose schedules, followed by sacrifice and harvesting spleen lymphocytes. These cells are then tested for their response to polyclonal mitogens or specific antigens used to immunize the mice. In this sytem however, no additional compound is added to the in vitro lymphocyte stimulation assay system.
Two strains of mice, C57BL/6 and BDF1 are treated for seven days with i.p. administration of either 25, 50, 100, 200, or 400 mg/kg of Cpd. 1 or just buffer. This is followed on the eighth day by a lymphocyte stimulation assay.
A comparison is made of the lymphocyte response to C57BL/6 mice treated 4 days with i.p. administration of either 50, 100, 200, 400 or 800 mg/kg of Cpd. 1, 50, 100, 200, 400 or 800 mg/kg of ascorbic acid (AA), or just buffer. This is followed on the fifth day by a lymphocyte stimulation assay.
Two strains of mice, C57BL/6 and BALB/c, are treated 4 days with i.p. administration of either 50, 100, 200, or 400 mg/kg of Cpd. 1, or just buffer. This is followed on the fifth day by a lymphocyte stimulation assay.
C57BL/6 mice were treated with four daily i.p. doses of either 50, 100, 200, or 400 mg/kg of Cpd. 1 or just buffer. On the fifth day a lymphocyte stimulation assay was performed.
Mice of the C57BL/6 strain were tested with i.p. administration of either 100, 200, 400 or 600 mg/kg of Cpd. 1 or just buffer. This was followed by removal of spleens and treatment of lymphocytes therein with mitogens PHA and Con-A.
The compound of Example 2, Cpd. 2, was tested in vivo by using C57BL/6 mice and treating them with […] or just buffer for four consecutive days by the i.p. route. On the fifth day a lymphocyte stimulation assay was performed.

[3] = tested on: human lymphocytes; test: In vitro lymphocyte stimulation assay in humans; format: cell-based; settings: 0.1-100 μg/well, PHA and Con-A
Method: as §2, §3
as §4, with “In this sytem however, no additional compound is added to the in vitro lymphocyte stimulation assay system.” left out

[4] = tested on: spleen lymphocytes from C57BL/6 mice; test: In vitro lymphocyte stimulation assay, C57BL/6 spleen lymphocytes; format: cell-based, mouse
Method: as §2, §3, §4
An in vitro lymphocyte stimulation assay is performed directly on normal spleen lymphocytes removed from five normal C57BL/6 mice, using concentrations of Cpd. […] Following three days of incubation the assay is completed.
An in vitro lymphocyte stimulation assay was performed using spleen lymphocytes from normal C57BL/6 mice. The lymphocytes were treated with either 1, 5, 10, 50, or 100 μg/well of Cpd. 1 or buffer.
Cpd. 2 was tested using normal spleen lymphocytes from C57BL/6 mice. A lymphocyte stimulation assay was conducted using either 1, 5, 10, 50, or 100 μg/well […] or just buffer.
Spleen cells from C57BL/6 mice were treated, in vitro, with the crystallizing reagents, succinic acid and succinimide. Since these compounds are spontaneously released from the molecular complex in solution at a molar ratio of 2 moles of Cpds. 1, 2, or 3 per mole of the crystalline reagent, these reagents were treated in the lymphocyte stimulation assay at proper molar concentrations.
The compound of example 3, Cpd. 3, was used to treat C57BL/6 spleen lymphocytes in vitro. The lymphocytes were treated with either 1, 5, 10, 50, or 100 μg/well of Cpd. 3 or just buffer and then a lymphocyte stimulation assay was performed.

O=c1[nH]cc(F)c(=O)[nH]1 [5-FU, 5-fluorouracil, reference compound]
Median Survival Time [1]: 30

O=C1O[C@H]([C@@H](O)CO)C(O)=C1O [AA, ascorbic acid, reference compound]
proliferation with Con-A ([2]; 50 mg/kg i.p.): stimulation of proliferation | effect with PHA ([2]; 50-800 mg/kg i.p.): No statistically significant measurable effect | proliferative or anti-proliferative effect [3]: no significant proliferative or anti-proliferative effect

CN1C(=O)CCC1=O.Cc1ccc(C2(O)C(=O)OC3C(O)COC32O)o1.Cc1ccc(C2(O)C(=O)OC3C(O)COC32O)o1 (stereo not shown) [Cpd. 3]
Lymphocyte Stimulation Index, Con-A ([4]; 1 μg/well in vitro): 73.2 | Lymphocyte Stimulation Index, Control (no mitogen) ([4]; 1 μg/well in vitro): .60 | Lymphocyte Stimulation Index, PHA ([4]; 1 μg/well in vitro): 12.5 | Lymphocyte Stimulation Index, Con-A ([4]; 5 μg/well in vitro): 80.9 | Lymphocyte Stimulation Index, Control (no mitogen) ([4]; 5 μg/well in vitro): .64 | Lymphocyte Stimulation Index, PHA ([4]; 5 μg/well in vitro): 18.5 | response to PHA ([4]; 10 μg/well): significantly stimulated the response | Lymphocyte Stimulation Index, Con-A ([4]; 10 μg/well in vitro): 89.6 | Lymphocyte Stimulation Index, Control (no mitogen) ([4]; 10 μg/well in vitro): .47 | Lymphocyte Stimulation Index, PHA ([4]; 10 μg/well in vitro): 24.0 | response to Con-A ([4]; 50 μg/well): slightly stimulated the response | Lymphocyte Stimulation Index, Con-A ([4]; 50 μg/well in vitro): 97.2 | Lymphocyte Stimulation Index, Control (no mitogen) ([4]; 50 μg/well in vitro): .27 | Lymphocyte Stimulation Index, PHA ([4]; 50 μg/well in vitro): 4.08 | response to Con-A ([4]; 100 μg/well): suppressed the response | Lymphocyte Stimulation Index, Con-A ([4]; 100 μg/well in vitro): 2.88 | Lymphocyte Stimulation Index, Control (no mitogen) ([4]; 100 μg/well in vitro): .25 | Lymphocyte Stimulation Index, PHA ([4]; 100 μg/well in vitro): 0.263 | response to PHA ([4]; 50 and 100 μg/well): suppressed the response

O=C(O)CCC(=O)O [Succinic Acid, succinic acid, reference compound]
Lymphocyte Stimulation Index, Con-A ([4]; 1.04 μg/well in vitro): 64.6 | Lymphocyte Stimulation Index, Control (no mitogen) ([4]; 1.04 μg/well in vitro): .94 | Lymphocyte Stimulation Index, PHA ([4]; 1.04 μg/well in vitro): 15.7 | Lymphocyte Stimulation Index, Con-A ([4]; 2.08 μg/well in vitro): 51.1 | Lymphocyte Stimulation Index, Control (no mitogen) ([4]; 2.08 μg/well in vitro): 1.0 | Lymphocyte Stimulation Index, PHA ([4]; 2.08 μg/well in vitro): 15.3 | Lymphocyte Stimulation Index, Con-A ([4]; 4.15 μg/well in vitro): 42.3 | Lymphocyte Stimulation Index, Control (no mitogen) ([4]; 4.15 μg/well in vitro): .91 | Lymphocyte Stimulation Index, PHA ([4]; 4.15 μg/well in vitro): 14.0 | Lymphocyte Stimulation Index, Con-A ([4]; 8.3 μg/well in vitro): 35.6 | Lymphocyte Stimulation Index, Control (no mitogen) ([4]; 8.3 μg/well in vitro): .91 | Lymphocyte Stimulation Index, PHA ([4]; 8.3 μg/well in vitro): 12.4 | Lymphocyte Stimulation Index, Con-A ([4]; 16.6 μg/well in vitro): 38.5 | Lymphocyte Stimulation Index, Control (no mitogen) ([4]; 16.6 μg/well in vitro): 1.1 | Lymphocyte Stimulation Index, PHA ([4]; 16.6 μg/well in vitro): 11.5 | PHA and Con-A mitogenesis ([4]; with increased dosage, 1.04-16.6 μg/well): decrease in PHA and Con-A mitogenesis

O=C1CCC(=O)N1 [Succinimide, succinimide, reference compound]
Lymphocyte Stimulation Index, Con-A ([4]; 13.92 μg/well in vitro): 92.9 | Lymphocyte Stimulation Index, Control (no mitogen) ([4]; 13.92 μg/well in vitro): 1.4 | Lymphocyte Stimulation Index, PHA ([4]; 13.92 μg/well in vitro): 17.1 | effect on response to either mitogen ([4]; 0.87-13.92 μg/well): no significant suppressive or enhancing effect
